According to PubChem BioAssay AID1745860:

Biological target: Sodium-dependent noradrenaline transporter (Homo sapiens) (UniProt P23975)
Assay: NET transport inhibition via TRACT readout – HEK293 JumpIn overexpressing cells, impedance, dose response (AID 1745860)
Conditions: HEK293 JumpIn SLC6A2 OE

Chain of Sodium-dependent noradrenaline transporter (Homo sapiens) (P23975 whole entry, looked up): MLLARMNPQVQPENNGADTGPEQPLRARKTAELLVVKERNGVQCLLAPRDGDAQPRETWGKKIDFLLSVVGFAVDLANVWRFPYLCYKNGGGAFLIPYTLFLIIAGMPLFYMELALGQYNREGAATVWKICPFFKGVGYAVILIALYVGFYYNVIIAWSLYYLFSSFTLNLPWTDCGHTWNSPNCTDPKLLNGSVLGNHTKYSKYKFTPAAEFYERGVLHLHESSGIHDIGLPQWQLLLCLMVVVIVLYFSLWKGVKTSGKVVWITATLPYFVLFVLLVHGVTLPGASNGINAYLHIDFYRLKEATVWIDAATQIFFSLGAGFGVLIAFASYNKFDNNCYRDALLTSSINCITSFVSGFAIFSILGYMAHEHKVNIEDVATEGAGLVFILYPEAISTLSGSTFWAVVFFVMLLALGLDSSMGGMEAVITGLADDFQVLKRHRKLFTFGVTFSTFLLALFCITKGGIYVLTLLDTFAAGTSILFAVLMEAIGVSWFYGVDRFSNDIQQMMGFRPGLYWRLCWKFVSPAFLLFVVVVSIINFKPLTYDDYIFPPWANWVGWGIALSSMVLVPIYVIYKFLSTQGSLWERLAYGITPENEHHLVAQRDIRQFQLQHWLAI

## CNC[C@H](O)c1ccc(O)c(O)c1
  IC50: 4 µM
